Experimental findings from patent US20250144127A1, “LONG-CHAIN COMPOUND AND USE THEREOF” (Burgeon Therapeutics Co., Ltd., priority 2021, published 2025) are described below.

Data set [1] deals with T1, Human-derived ACLY protein (Homo sapiens, UniProt P53396).
T1 construct: purchased Beijing Yiqiao Shenzhou Technology Co., Ltd 11769-H07B
T1 sequence (P53396 1-1101): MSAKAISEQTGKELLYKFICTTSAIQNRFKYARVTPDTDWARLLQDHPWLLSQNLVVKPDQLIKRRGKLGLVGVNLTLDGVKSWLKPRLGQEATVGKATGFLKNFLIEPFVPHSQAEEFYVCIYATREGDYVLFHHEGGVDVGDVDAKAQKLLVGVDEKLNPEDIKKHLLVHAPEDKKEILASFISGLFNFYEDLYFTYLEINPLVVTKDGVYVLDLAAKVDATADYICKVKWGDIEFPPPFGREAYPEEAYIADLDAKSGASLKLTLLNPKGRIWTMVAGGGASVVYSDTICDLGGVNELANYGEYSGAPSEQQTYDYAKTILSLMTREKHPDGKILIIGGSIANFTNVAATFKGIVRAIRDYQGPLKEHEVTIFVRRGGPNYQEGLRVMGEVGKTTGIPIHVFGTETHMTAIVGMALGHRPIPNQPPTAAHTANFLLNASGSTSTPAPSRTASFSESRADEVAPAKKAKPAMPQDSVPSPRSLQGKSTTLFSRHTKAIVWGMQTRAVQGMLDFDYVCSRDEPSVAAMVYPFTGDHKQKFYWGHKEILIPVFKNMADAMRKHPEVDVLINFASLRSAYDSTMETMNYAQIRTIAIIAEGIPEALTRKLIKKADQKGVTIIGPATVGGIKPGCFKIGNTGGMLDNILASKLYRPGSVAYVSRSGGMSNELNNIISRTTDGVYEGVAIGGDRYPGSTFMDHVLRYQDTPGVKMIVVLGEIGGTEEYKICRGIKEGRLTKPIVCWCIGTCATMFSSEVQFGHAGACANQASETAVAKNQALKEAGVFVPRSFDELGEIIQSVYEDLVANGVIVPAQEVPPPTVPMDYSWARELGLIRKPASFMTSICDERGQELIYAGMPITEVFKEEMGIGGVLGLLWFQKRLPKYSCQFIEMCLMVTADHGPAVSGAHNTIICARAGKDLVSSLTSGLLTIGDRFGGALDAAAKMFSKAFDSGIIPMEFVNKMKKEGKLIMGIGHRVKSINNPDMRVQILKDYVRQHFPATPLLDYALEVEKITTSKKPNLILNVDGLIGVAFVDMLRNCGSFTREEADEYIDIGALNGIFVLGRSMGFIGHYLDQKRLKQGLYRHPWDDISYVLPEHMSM
Put plainly: ACLY citrate cleavage enzyme inhibition, ADP-Glo assay. In kind it is biochemical. The conditions noted are these: 25 nM enzyme, 30 min, 37° C., read-out: IC50 for inhibition of ACLY enzyme activity (mean ± SD). An excerpt: The ACLY-catalyzed citric acid cleavage process requires the consumption of one molecule of ATP to activate citric acid. Based on this reaction principle, the inventors utilized an ADP-Glo assay kit to detect the amount of ATP converted to ADP in response to the catalytic activity of ACLY. After the establishment of the activity measurement system and optimization of the reaction conditions, the inventors evaluated the ACLY inhibitory activity of the obtained novel ACLY small molecule inhibitors.
Activity test protocol: Human-derived ACLY protein was purchased from Beijing Yiqiao Shenzhou Technology Co., Ltd (Item No. 11769-H07B), and ADP-Glo assay kit was purchased from Promega (Item No. V9102). The total volume of the reaction was 5 μL, which consisted of a mixture of three parts: 1 μL of 2% DMSO, 2 μL of the substrate mixture, and 2 μL of the enzyme (final concentration of 25 nM). Then 1 μL of different concentrations of compounds were added for incubation. Reaction conditions: 30 min, 37° C. Then 2.5 μL of ADP Reagent from ADP-Glo Kit was used, mixed well and reacted for 2 h. 5 μL of ADP Detection was added, centrifuged and mixed well. Then the full wavelength value was read from Envision multifunctional plate reader.
Results: Firstly, the cumulative amount of fluorescence intensity of the enzyme in 30 min reaction time (RFU/min) was calculated to represent the initial velocity of the enzyme, and then the ratio of the enzyme's velocity with the addition of compounds (vsample) to the enzyme's velocity without the addition of compounds (vDMSO) was calculated to be the percentage of activity for each concentration group of the samples (Activity rate %), with the formula: % Activity=(V(sample)/(v(DMSO))×100%. The logarithmic value of the concentration was plotted against the activity percentage, and then a non-linear regression was used to calculate the fitted curve. The software GraphPad Prism 8.0 (formula log (inhibitor) vs. response—Variable slope) was used to fit the curve and calculate the IC50 value, and the results are shown in the table below.
In general terms: ADP-Glo first removes unused ATP, then detects ADP through luciferase.

The test system of data set [2] is primary mouse hepatocytes. The data set can be described thus: Inhibition of de novo lipid synthesis in primary hepatocytes, [1,2-14C]-sodium acetate tracer. The conditions noted are these: Hepatocyte, compound 12.5 μM, 4 h, [1,2-14C]-acetate, read-out: Lipid synthesis inhibition (%) (mean ± SD). In kind it is cell-based. How it is done:
Primary hepatic cell isolation and walling: the mouse liver was lavaged by calcium-free perfusate, then digested using collagenase and mouse primary hepatocytes were obtained by density gradient centrifugation, and were inoculated in 6-well plates at a density of 3×10^5/ml (0.2% gelatin was coated before inoculating). After inoculating, the cells were cultured and adhered for 6 h. The medium was changed to serum-free LG-DMEM (containing 2× double antibody) and starved the cells overnight.
Isotope tracing: the next day, the medium was switched to serum-free LG-DMEM containing 10 nM insulin and the corresponding concentration of compounds (1950 μL, 4 replicate wells per group); 0.1 μCi of [1,2-^14C]-acetate serum-free medium was added to each well, and the plates were then incubated for 4 h in the incubator.
Lipid saponification: Add 1.6 mL of ice PBS to each well for washing 3 times, shake the plate to dry and add 600 μL of 0.5 M KOH to each well to lysis for 1 h. Pipette 480 μL into a glass test tube with 400 μL of 20% KOH (methanol was used as solvent), shake and mix well, and then place it in a water bath at 95° C. to saponify for 3 h. The remaining lysate was used for the determination of the concentration of proteins. Add 400 μL of petroleum ether to each tube, pipette 5-6 times and centrifuge at 2500 rpm for 5 min, take 350 μL of the upper layer of the clear solution to the EP tube, and then add 400 μL of petroleum ether to repeat the extraction for 2 times (a total of 3 times). After complete transfer of the supernatant, 200 μL of water and 400 μL of 5N sulfuric acid were added to each tube for acidification, and the mixture was shaken and mixed. Add 400 μL of petroleum ether to each tube, pipette 5-6 times and centrifuge at 2500 rpm for 5 min, take 350 μL of the upper layer of the clear solution to the EP tube, then add 400 μL of petroleum ether and repeat the extraction for 2 times (a total of 3 times). Place in a fume hood and evaporate the petroleum ether overnight.
Isotope participation quantification: 1700 μL of scintillation solution was added to each tube and read.
Data processing and analysis: Firstly, the isotopic reference (R control, unit: CCPM/mg protein) of free fatty acids and cholesterol was calculated for the Control group of untreated mouse primary hepatocytes within 4 hours, which represented the basal synthesis. The percent inhibition of lipid synthesis was then calculated for each concentration group of the sample.

For another data set, the system named is golden hamster. Put plainly: High-fat and high-cholesterol diet-induced hyperlipidemia model of golden hamster. The data set is classed as in vivo. The conditions noted are these: for serum LDL cholesterol / serum total cholesterol: 1 time/day, 7 days, vs control group. An excerpt:
Dosing regimen: The hyperlipidemia model of golden hamster is recognized as one of the ideal animal models for studying hyperlipidemia drug therapy (pharmacodynamic evaluation). In order to preliminarily investigate the existence of potential regulatory effects of the candidate compounds on hepatic lipid metabolism homeostasis, the high-fat and high-cholesterol diet-induced hyperlipidemia model of golden hamster was utilized for preliminary pharmacodynamic evaluation. The specific protocol was as follows. 56 golden hamsters, males, were modeled on high-fat and high-cholesterol diet (Research diet, item number C11953) for two weeks, and 8 golden hamsters were reserved as blank control group. Subsequently, group administration (7 groups, n=8) was performed, i.e., model control group, positive control ETC-1002 30 mg/kg group, compound A3 10 mg/kg and 30 mg/kg group, compound A4 10 mg/kg and 30 mg/kg group, and blank control group. The compounds in each group were configured with saline (0.9% NaCl) and administered at a frequency of 1 time/day for a 7-day dosing cycle.
Indicator test: The body weight and food intake of golden hamsters were closely monitored during the administration period. After 7 days of administration, blood was collected from the orbital region of each group (starved overnight for about 16 hours), centrifuged to obtain serum, and stored in cryopreservation, and then total cholesterol and LDL cholesterol were detected in the serum. The relative amount of the relevant indexes was calculated as follows: Relative amount (100%)=the amount in the administered group/the amount in the model control group*100%.

Data set [3] concerns primary hepatocytes from WT mice. The data set can be described thus: De novo lipid synthesis in WT primary hepatocytes, [14C]-citric acid tracer. In kind it is cell-based. The conditions noted are these: WT mouse hepatocytes, [14C]-citric acid substrate.
Data set [4] deals with ACLY knockdown primary hepatocytes. The data set can be described thus: De novo lipid synthesis in ACLY knockdown primary hepatocytes, [14C]-citric acid tracer. In kind it is cell-based, mouse. The conditions noted are these: [14C]-citric acid substrate. The text has this:
Test protocol: In order to further investigate the dependence of the inhibitory effect of the series of compounds on de novo lipid synthesis on ACLY, the inventors chose ACLY knockdown primary hepatocytes for further evaluation of de novo lipid synthesis, while compound ETC-1002 was used as a positive control. Specifically, the experimental protocol was as above, and 0.1 μCi/well [^14C]-citric acid was used for tracing.

Data set [5] in a line: Oral pharmacokinetics in ICR mice. In kind it is in vivo, mouse. The conditions noted are these: male, mouse, ICR mice, oral, 30 mg/kg, plasma. How it is done:
Dosing regimen: 6 normal ICR mice, male, were divided into 2 groups (n=3), one group was orally given the positive control ETC-1002, and one group was orally given the tested compound A3, both administered at a dose of 30 mg/kg; blood was taken from the eye orbits at different time points before and after the administration of the drug, and the plasma drug concentration was detected.

The mark [6] stands for this setting: golden hamster, during administration.

By IC50 is commonly meant the point on the concentration scale where inhibition reaches its midpoint. Consider `CC(C)(CCCC/C=C/CCCCC(C)(C)C(=O)O)C(=O)O` [Compound A1], for which, in data set [1], the 50% inhibitory concentration (IC50) came out at 42.3 ± 6.5 µM.
For orientation: inhibition means how much of the control response was suppressed. In the case of `CC(C)(CCCC/C=C\CCCCC(C)(C)C(=O)O)C(=O)O` [Compound A2], in data set [1], the IC50 came out at 105 ± 7.1 µM. For the same compound, in data set [2], the inhibition at 12.5 µM was determined as 80.9 ± 5.9%.
For the compound `CC(C)(CCCC/C=C\CCCCCC(C)(C)C(=O)O)C(=O)O` [Compound A4], the IC50 in data set [1] was found to be 53.9 ± 13.8 µM. The inhibition at 12.5 µM in data set [2] came out at 78.2 ± 4.3%. Besides, in the data set on golden hamster (10 mg/kg), the “serum LDL cholesterol” value is reported as “did not change significantly” and the serum total cholesterol result is on record as “did not change significantly”. Moreover, in the data set on golden hamster (30 mg/kg), the “serum LDL cholesterol” value is “significantly reduce” and the serum total cholesterol result is “significantly reduce”. Besides, in the data set with golden hamster (setting [6]), the body weight entry is “significant decrease”, the food intake result was “significant decrease” and the tolerance observation result is reported as “intolerance phenomena such as slowed activity”.
For the compound `CC(C)(CCCCC/C=C/CCCCCC(C)(C)C(=O)O)C(=O)O` [Compound A5], the IC50 in data set [1] was found to be 16.7 ± 1.8 µM. For the same compound, the inhibition at 12.5 µM in data set [2] amounted to 56.6 ± 7.6%.
Take `CC(C)(CCCCC/C=C\CCCCCC(C)(C)C(=O)O)C(=O)O` [Compound A6]: the 50% inhibitory concentration (IC50) in data set [1] turned out to be 25.5 ± 6.8 µM. For the same compound, in data set [2], the inhibition at 12.5 µM worked out at 68.7 ± 20.9%.
For `CC(C)(CCCCC/C=C/CCCCCCC(C)(C)C(=O)O)C(=O)O` [Compound A7], the IC50 in data set [1] was 12 ± 2.2 µM.
In the case of `CC(C)(CCCCC/C=C\CCCCCCC(C)(C)C(=O)O)C(=O)O` [Compound A8], the IC50 in data set [1] came out at 21.3 ± 9.7 µM. Also, in data set [2], the inhibition at 12.5 µM is 21.6 ± 1.3%.
Turning to `CC(C)(CCCCCC/C=C/CCCCCCC(C)(C)C(=O)O)C(=O)O` [Compound A9], the IC50 in data set [1] is 25.8 ± 9.2 µM. Further, in data set [2], the inhibition at 12.5 µM stood at 30.9 ± 4.2%.
On the same counts, the results for `CC(C)(CCCCCC/C=C\CCCCCCC(C)(C)C(=O)O)C(=O)O` [Compound A10] are 9.6 ± 5.1 µM and 21.1 ± 11.7%.
In the case of `C/C(CCCCCC(C)(C)C(=O)O)=C(\C)CCCCC(C)(C)C(=O)O` [Compound A11], in data set [1], the IC50 was determined as 40.2 ± 2.9 µM.
`CC(C)(CCCCCC1CC1CCCCC(C)(C)C(=O)O)C(=O)O` (stereo not shown) [Compound A12]: the IC50 in data set [1] is 56.9 ± 4.7 µM. Further, the inhibition at 12.5 µM in data set [2] was found to be 38.7 ± 11.4%.
What is called AUC(0-inf) is total exposure, with the tail of the curve extrapolated. Low values mean less exposure, high ones more exposure. The AUC(0-t) is exposure summed from dosing to a finite time, without extrapolation to infinity. Read a high AUC(0-t) as high exposure. In general, Cmax refers to the highest concentration seen after dosing. The Tmax is the time at which the peak concentration occurs. In general, half-life refers to the time in which the quantity being followed falls by half. On to `CC(C)(CCCCCC(O)CCCCCC(C)(C)C(=O)O)C(=O)O` [ETC-1002, Bempedoic acid, reference compound], for which the inhibition at 12.5 µM in data set [2] stood at 46.3 ± 15.3%. Also, in data set [3] (FIG. 1 A), the “de novo synthesis of triglycerides” value is reported as “significantly inhibited”. In data set [3] (FIG. 1 B), the “de novo synthesis of cholesterol” value is given as “significantly inhibited”. Moreover, in data set [4], the “inhibitory effect on de novo synthesis of cholesterol” value is “significantly attenuated or even the inhibitory effect was not manifested” and the “inhibitory effect on de novo synthesis of triglycerides” value is “significantly attenuated or even the inhibitory effect was not manifested”. For the same compound, in data set [5], the AUC(0-inf) stood at 15600 ng·h/mL, the AUC(0-t) came out at 14400 ng·h/mL, the Cmax came to 3810 ng/mL and the Tmax was 15 min. Moreover, in data set [5], the half-life is 267 min. In addition, the MRT inf in data set [5] (read-out: MRT0-∞) turned out to be 6.81 h.
